According to patent US9816074B2, “Methods and compositions for modulating nuclease-mediated genome engineering in hematopoietic stem cells” (Sangamo BioSciences, Inc., priority 2014, dated 2017):
Read-outs that look alike come from different tables or passages of the source.

Columns and labels:
Format in all cases: cell-based
[1] = system: Human mPB CD34+ cells; assay: Flow cytometry of HSPC multipotency markers (CD34, CD133, CD90, CD49f, CD166, CD38, CD45RA); conditions: for CD90 expression (FIG. 3A): dmPGE2 10 μM, SR1 1 μM, 17 days, addition 1 day post thawing; for CD49f expression (FIG. 3C) / CD133 expression (FIG. 3B): compared to controls, 17 day culture; for CD34 expression compared to controls (FIG. 3D): for the duration of the experiment (17 days); for CD90 expression (percent of CD90+ cells, FIG. 2A): nicotinamide 2.5 mM, TEPA 5 μM, addition at 1 day post thawing, vs control
Procedure: Human mPB CD34+ cells were cultured ex vivo in CC110 media for 3 days with or without VPA, nicotinamide or TEPA. Various cell surface markers are enriched on CD34+ subpopulations that contain true LT-HSCs. Measurement of such cell surface markers can therefore be used as a proxy for the number of LT-HSCs in the culture. In particular, CD90, CD133, CD49f, CD38, and CD166 can be used to assay LT-HSC number (Notta et al. (2011) Science 333(6039):218-21; Chitteti et al. (2014) Blood 124(4):519-29), with the LT-HSCs generally residing in the CD90+CD133+CD49f+CD38-low CD166+ pool. Accordingly, cells were stained using fluorescently-tagged antibodies against the HSPC multipotency markers CD34 (PE-Cy7), CD133 (PE), CD90 (APC), and CD49f (PerCP) and analyzed by flow cytometry.
Human mPB CD34+ cells were cultured ex vivo in CC110 media for 17 days. Cells were then stained using fluorescently-tagged antibodies against the HSPC multipotency markers CD34 (PE-Cy7), CD133 (PE), CD90 (APC), and CD49f (PerCP) and analyzed by flow cytometry as described above.
Human mPB-derived cells were cultured as described above in the presence or absence of VPA (1.25 mM) and 5 mM lithium chloride (Li) and cells assayed for primitive cell surface markers as described above.
CD34+ cells were cultured ex vivo in CC110 media with 100 ng/mL IL-6 for 8 days in the presence or absence of VPA, lithium, nucleases and donors. VPA and Li were added prior to nucleases and/or donors (which can be added in any order). Briefly, CD34+ cells were thawed and cultured for approximately […] before addition of VPA and Li and cultured again (e.g., 1-2 days) before addition of a donor. Nucleases (e.g., ZFN mRNA) were added 0.5 to 1 day later and VPA/Li washed out at the same time. After at least a day, cells were then stained using fluorescently-tagged antibodies against the HSPC multipotency markers CD34 (PE-Cy7), CD133 (PE), CD90 (APC), and CD49f (PerCP) and analyzed by flow cytometry.
CD34+ cells were cultured ex vivo in CC110 media as described above for approximately 6 days in the presence or absence of VPA, lithium, nucleases and donors. VPA and Li were added after to nucleases and/or donors (which can be added in any order). Briefly, CD34+ cells were thawed and cultured for approximately 2-3 days before addition of a donor. Nucleases (e.g., ZFN mRNA) were added 0.5 to 1 day after transfection with the donor. The donor was a SA-IL2RG partial corrective cDNA transgene at IL2RG intron 1 and the zinc-finger nucleases (ZFN) were SBS #s 44271/44298 delivered by BTX electroporation. VPA/Li was added 1 day after addition of the ZFN mRNA. After approximately 3 days, cells were then stained using fluorescently-tagged antibodies against the HSPC multipotency markers CD34 (PE-Cy7), CD133 (PE), CD90 (APC), and CD49f (PerCP) and analyzed by flow cytometry.
(§1) Human mPB CD34+ cells were cultured ex vivo in CC110 media with or without 100 ng/mL IL-6 in the presence of VPA (1.25 mM or 2.5 mM) and 5 mM lithium chloride (Li) for 4 (blue lines—added at 4 days post thawing of the cells) or 7 days (red line—added at 1 day post thawing).
The presence of IL-6 was capable of enhancing the expression of CD49f with extended culture. […] In a further experiment, human mPB CD34+ cells were cultured ex vivo in CC110 media in the presence of VPA (1.25 mM) plus LiCl (5 mM) with or without 100 ng/mL IL-6 for 7 days.
After 7 days in culture cells were stained using fluorescently-tagged antibodies against the HSPC multipotency marker CD166 (PE) and analyzed by flow cytometry. VPA+Li increased the overall fraction of CD166+ cells.
Human mPB CD34+ cells were cultured ex vivo in CC110 media with 100 ng/mL IL-6 in the presence or absence of VPA (1.25 mM) plus LiCl (5 mM) for 6 days.

[2] = system: Human mPB CD34+ cells; assay: Cell viability by flow cytometry in the presence of propidium iodide
Procedure: (§2) No change in culture cell density was seen after VPA addition compared to controls in genome modified mPB HSPCs (FIG. 6F).
as §1

[3] = system: Human mPB CD34+ cells; assay: Methylcellulose assays (colony forming units) on CD34+ cell cultures
[4] = system: Human mPB CD34+ cells; assay: Cell density / proliferative capacity in culture; conditions: for cell density / growth (FIG. 3F): extended culture, 17 days
Description: as §2
The presence of IL-6 was capable of enhancing the expression of CD49f with extended culture. […]

[5] = system: CD34+ cells; assay: CRISPR/Cas nuclease modification with VPA (as Example 3, CRISPR/Cas in place of ZFNs); conditions: introduced before, concurrently and/or after the CRISPR/Cas nuclease systems
Procedure: Experiments are conducted as described in Example 3 using CRISPR/Cas nucleases in place of ZFNs (e.g., specific for any gene such as IL2, HPRT, etc.), with and without donors.

[6] = 14 days of in vitro differentiation
[7] = VPA 1.25 mM added 1 day post thawing
[8] = compared to controls after 14 days of in vitro differentiation

Compound: CC(C)n1cnc2c(NCCc3ccc(O)cc3)nc(-c3csc4ccccc34)nc21 [SR1, StemRegenin 1]
- CD90 expression (FIG. 3A) ([1]; VPA 1.25 mM, CC110 media): No effect
- CD49f expression (FIG. 3C) [1]: increased expression compared to both controls and VPA after 17 days in culture
- CD133 expression (FIG. 3B) [1]: decreased expression
- CD34 expression compared to VPA (FIG. 3D) ([1]; extended culture): higher expression
- CD34 expression compared to controls (FIG. 3D) [1]: retained elevated CD34 expression
- cell viability (FIG. 3E) [2]: no effect on cell viability
- erythroid burst-forming units (BFU-E) [3, 6]: increased
- granulocyte and megakaryocyte colony-forming units (CFU-GM) [3, 6]: increased
- cell density / growth (FIG. 3F) [4]: slight growth advantage

Compound: NCCNCCNCCNCCN [TEPA, tetraethylenepentamine]
- CD90 expression (percent of CD90+ cells, FIG. 2A) ([1]; VPA 1.25 mM): No effect

Compound: CCCC(CCC)C(=O)O [VPA, valproic acid]
- level of CD90 expression, VPA added at day 1 vs day 4 [1]: higher level
- marker expression after VPA washout and genome modification ([1]; Example 3C): retained high CD90, CD34, CD133 and CD49f expression
- CD49f expression compared to controls ([1]; VPA 1.25 mM + LiCl 5 mM, 7 days): increased
- time to peak of CD90 expression after addition (FIG. 2A) [1, 7]: ≤ 2 days
- time to peak of CD90 expression after addition (FIG. 3A) [1, 7]: ≤ 2 days
- CD90 expression (FIG. 3A) ([1]; VPA 1.25 mM, CC110 media): dramatically increased
- CD90 expression (percent of CD90+ cells, FIG. 2A) ([1]; VPA 1.25 mM): dramatically increased
- fraction of CD34+CD133+CD90+CD49f+ cells ([1]; VPA 1.25 mM, CC110 media, 3 days, controls 14.4%): 85.9%
- proportion of CD34+CD133+ cells ([1]; VPA 1.25 mM, CC110 media, 3 days, controls 51.7%): 93.1%
- level of CD133, CD90 and CD49f expression, VPA added at day 1 vs day 4 ([1]; VPA + 5 mM Li): higher level
- marker expression after VPA washout and genome modification ([1]; addition after extended culture (Example 3B)): retained high CD90, CD34, CD133 and CD49f expression
- CD49f expression (FIG. 3C) [1]: increased CD49f expression for up to 15 days
- CD133 expression (FIG. 3B) [1]: increased
- fraction of cells unresponsive to VPA stimulation between days 1 and 4 post thawing (CD133, CD90 and CD49f expression) ([1]; day 1 vs day 4 addition): ~15%
- fraction of cells unresponsive to VPA stimulation between days 1 and 4 post thawing, CD49f ([1]; day 1 vs day 4 addition): ~15%
- fraction of cells unresponsive to VPA stimulation between days 1 and 4 post thawing, CD90 ([1]; day 1 vs day 4 addition): ~20%
- fraction of cells unresponsive to VPA stimulation between days 1 and 4 post thawing, CD133 ([1]; day 1 vs day 4 addition): ~15%
- CD34 expression, VPA added at day 1 vs day 4 post-thawing ([1]; extended culture): increased CD34 expression
- CD34 expression compared to controls (FIG. 3D) [1]: retained elevated CD34 expression
- dose dependence of CD49f expression ([1]; increasing VPA): No significant dose dependence
- dose dependence of CD90 expression ([1]; increasing VPA): dose dependence
- dose dependence of CD34 expression ([1]; increasing VPA doses (1.25 mM, 2.5 mM)): slight dose dependence
- cell viability (FIG. 3E) [2]: no loss of cell viability
- cell viability after VPA addition compared to controls (FIG. 6E) [2]: no increased loss of cell viability
- overall cell viability with VPA [2]: slightly lower viability
- recovery of cell viability following VPA administration [2]: initial delay in recovery
- viability after VPA addition, before genome modification (FIG. 5E) [2]: no decrease in viability
- viability after genome modification (FIG. 5E) [2]: significant viability loss
- viability after genome modification (FIG. 6E) [2]: significant loss of viability
- myeloid or erythroid differentiation capacity (FIG. 2C) [3, 8]: no significant difference
- myeloid or erythroid differentiation capacity (FIGS. 3G and 3H) [3, 8]: no significant difference
- cell growth, VPA at day 4 compared to day 1 [4]: cell growth advantage
- cell growth potential at 2.5 mM VPA ([4]; 2.5 mM VPA): decreased cell growth potential
- initial proliferative capacity ([4]; Example 6, VPA administration): slightly decreased proliferative capacity
- proliferative capacity after 7 days in culture ([4]; Example 6, VPA administration): recovered
- culture cell density (FIG. 6F) ([4]; after VPA addition compared to controls, genome modified mPB HSPCs): No change
- cell density / growth (FIG. 3F) [4]: slightly decreased proliferative capacity
- cell growth at lower doses of VPA ([4]; lower doses than 2.5 mM): did not affect cell growth as substantially
- CRISPR/Cas induced nuclease modification [5]: enhances

Compound: CCCCC(C)(C)[C@H](O)/C=C/[C@H]1[C@H](O)CC(=O)[C@@H]1C/C=C\CCCC(=O)O [dmPGE2, 16,16-dimethyl Prostaglandin E2]
- CD90 expression (FIG. 3A) ([1]; VPA 1.25 mM, CC110 media): No effect
- cell viability (FIG. 3E) ([2]; extended culture, 17 days): no effect on cell viability
- cell density / growth (FIG. 3F) [4]: slight growth advantage

Compound: NC(=O)c1cccnc1 [nicotinamide]
- CD90 expression (percent of CD90+ cells, FIG. 2A) ([1]; VPA 1.25 mM): No effect

Compound: IL-6: cytokine added to CC110 media at 100 ng/mL
- VPA-increased HSC multipotency marker expression in the presence of IL-6 ([1]; 100 ng/mL IL-6): enhanced
- expression of CD49f in the presence of IL-6 ([1]; 100 ng/mL IL-6, extended culture with VPA+Li): enhancing
- overall cell density with or without IL-6 ([4]; 100 ng/mL IL-6, VPA+Li cultures): higher overall cell density in the absence of IL-6
